# ChEMBL document CHEMBL1138140, “Inhibition of DNA helicases with DNA-competitive inhibitors” (Bioorg Med Chem Lett, 2006)
# Legend:
# Format in all cases: functional
# DNA helicase IV [1] = molecular target: DNA helicase IV (Escherichia coli K-12, UniProt P15038, Y473A); test: Inhibition of ATPase activity of Tyr473Ala mutated Helicase4 in presence of ATP (5x Km(ATP)) and dT25 (5x KDNA)
# [2] = molecular target: T1, DNA helicase IV (Escherichia coli K-12) (UniProt P15038); test: Inhibition of ATPase activity of Helicase4 from Escherichia coli at 10 uM
# T1 sequence (whole entry): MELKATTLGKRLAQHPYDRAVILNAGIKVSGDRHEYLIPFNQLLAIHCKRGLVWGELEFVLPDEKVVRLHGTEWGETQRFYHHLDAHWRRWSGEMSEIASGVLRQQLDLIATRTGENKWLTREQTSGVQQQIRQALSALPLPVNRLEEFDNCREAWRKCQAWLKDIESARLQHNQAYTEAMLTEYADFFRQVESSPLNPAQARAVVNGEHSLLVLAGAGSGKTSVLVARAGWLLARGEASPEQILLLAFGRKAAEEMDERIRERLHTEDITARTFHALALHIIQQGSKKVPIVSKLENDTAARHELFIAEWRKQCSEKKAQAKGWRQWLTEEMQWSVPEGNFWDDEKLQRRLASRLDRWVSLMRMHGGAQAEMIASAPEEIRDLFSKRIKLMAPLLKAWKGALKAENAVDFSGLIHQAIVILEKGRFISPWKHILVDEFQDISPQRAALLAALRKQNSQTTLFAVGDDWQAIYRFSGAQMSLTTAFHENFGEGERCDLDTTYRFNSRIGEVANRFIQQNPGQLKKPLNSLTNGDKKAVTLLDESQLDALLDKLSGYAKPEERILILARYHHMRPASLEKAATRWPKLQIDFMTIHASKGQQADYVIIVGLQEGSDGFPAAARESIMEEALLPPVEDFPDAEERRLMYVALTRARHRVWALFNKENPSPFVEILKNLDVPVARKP
# DNA helicase IV [3] = molecular target: T2, DNA helicase IV (Escherichia coli K-12, UniProt P15038); test: Inhibition of ATPase activity of Helicase4 from Escherichia coli in presence of ATP (5x Km(ATP)) and dT25 (5x KDNA)
# T2 sequence (P15038 whole entry): T1 sequence (whole entry)
# [4] = molecular target: T1, DNA helicase IV (Escherichia coli K-12); test: Inhibition of helicase activity of Helicase4 from Escherichia coli at 10 uM
# Sequence of DNA helicase IV (Escherichia coli K-12, UniProt P15038, Y473A) (P15038 whole entry Y473A): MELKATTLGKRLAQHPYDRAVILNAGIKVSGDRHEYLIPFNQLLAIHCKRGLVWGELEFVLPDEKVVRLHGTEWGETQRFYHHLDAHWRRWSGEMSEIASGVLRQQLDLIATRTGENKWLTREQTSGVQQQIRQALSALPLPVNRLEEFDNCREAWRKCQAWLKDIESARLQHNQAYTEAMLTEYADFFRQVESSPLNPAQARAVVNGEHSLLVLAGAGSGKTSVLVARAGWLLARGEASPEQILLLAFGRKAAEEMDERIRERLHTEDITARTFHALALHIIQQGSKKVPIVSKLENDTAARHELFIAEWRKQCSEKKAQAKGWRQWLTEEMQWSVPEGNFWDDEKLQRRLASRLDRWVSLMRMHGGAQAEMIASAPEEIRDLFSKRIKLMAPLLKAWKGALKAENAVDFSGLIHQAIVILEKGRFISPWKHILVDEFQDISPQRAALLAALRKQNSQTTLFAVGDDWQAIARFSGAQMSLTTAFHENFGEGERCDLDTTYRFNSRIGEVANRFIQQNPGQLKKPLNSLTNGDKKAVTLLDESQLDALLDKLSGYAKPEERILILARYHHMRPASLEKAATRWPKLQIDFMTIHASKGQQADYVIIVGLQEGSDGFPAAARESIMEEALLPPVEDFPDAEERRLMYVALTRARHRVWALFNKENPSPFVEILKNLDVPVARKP
Structure (SMILES),IC50 (DNA helicase IV [1]),inhibition [2],IC50 (DNA helicase IV [3]),inhibition [4]
O=C(O)Cc1ccc2c(c1)C(=O)c1ccccc1CS2,5.5 µM,93%,5 µM,79%
Cc1ccc2c(c1)CSc1ccc(CC(=O)O)cc1C2=O,–,78%,7 µM,53%
O=C(O)Cc1ccc2c(c1)C(=O)c1ccccc1C[S+]2[O-] (configuration not stated),–,2%,–,0%
CC(C(=O)O)c1ccc2c(c1)C(=O)c1ccccc1CS2 (configuration not stated),–,98%,3 µM,93%
CC(=O)Nc1ccc2c(c1)C(=O)c1cc(CC(=O)O)ccc1SC2,–,99%,1.4 µM,89%
CCOC(=O)Cc1ccc2c(c1)C(=O)c1ccccc1CS2,–,0%,–,5%
